Test results reported in ChEMBL document CHEMBL3600354, “Nitric oxide inhibitory activity and antioxidant evaluations of 2-benzoyl-6-benzylidenecyclohexanone analogs, a novel series of curcuminoid and diarylpentanoid derivatives” (Bioorg Med Chem Lett, 2015).
Converted amounts (≈) assume the structure as drawn.

How the values were obtained:
[1] = Antioxidant activity assessed as nitric oxide radical scavenging activity at 500 uM incubated for 60 mins with light exposure at room temperature by Griess assay; assay type: physicochemical; settings: 1 h
[2] = system: RAW264.7; test: Inhibition of nitric oxide production in LPS/IFNgamma-stimulated mouse RAW264.7 cells incubated for 17 hrs by Griess assay; assay type: functional, cell-based; settings: RAW264.7, 17 h
[3] = system: RAW264.7; test: Cytotoxicity against LPS/IFNgamma-stimulated mouse RAW264.7 cells by MTT assay; assay type: cell-based
[4] = Antioxidant activity incubated at 50 degC for 20 mins by FRAP assay; assay type: physicochemical
[5] = Antioxidant activity assessed as DPPH radical scavenging activity at 200 uM incubated for 30 mins under dark conditions; assay type: physicochemical; settings: 0.5 h
[6] = system: RAW264.7; test: Inhibition of nitric oxide production in LPS/IFNgamma-stimulated mouse RAW264.7 cells at 50 uM incubated for 17 hrs by Griess assay; assay type: functional; settings: RAW264.7, 17 h
[7] = system: Liver microsome; test: Stability in human liver microsomes assessed as compound degradation at 1 mM pre-incubated at 37 degC for 5 mins followed by NAPDH addition and further incubated at 37 degC for 15 to 120 mins by HPLC method; assay type: ADME; settings: 1000 µM
[8] = Chemical stability in phosphate buffer at pH 7.4 at 20 uM measured over 30 mins at 5 mins intervals at 25 degC by ultraviolet absorption spectroscopy; assay type: physicochemical; settings: pH 7.4, 0.5 h
[9] = Solubility in phosphate buffer at pH 7.4 stirred for 24 hrs at room temperature by HPLC method; assay type: physicochemical
[10] = Stability in human liver microsomes assessed as compound remaining at 1 mM pre-incubated at 37 degC for 5 mins followed by NAPDH addition and further incubated at 37 degC for 120 mins by HPLC method; assay type: ADME; settings: read-out: Stability
[11] = Antioxidant activity assessed as DPPH radical scavenging activity incubated for 30 mins under dark conditions; assay type: physicochemical

inhibition (INH) [1] [%]	IC50 [2] [µM]	Activity [4] [mmolequiv/L]	inhibition (INH) [5] [%]	Stability [7]	Stability [8]	solubility at 24 h [9] [µM]	remaining at 2 h, 1000 µM [10] [%]	IC50 [11] [µM]	SMILES	IC50 [3] [µM]	inhibition at 50 µM [6] [%]
28.3	32.1	0.018	21.8						COc1cccc(/C=C2\CCCC(C(=O)c3ccccc3)=C2O)c1	> 100	71.6
				Unstable	Stable	3.3 (≈ 1.06 µg/mL)	> 60		O=C(C1=C(O)/C(=C/c2ccc(O)c(O)c2)CCC1)c1ccccc1		
21		0.073	11.7						O=C(C1=C(O)/C(=C/c2ccc3ccccc3c2)CCC1)c1ccccc1		9.3
88.3	14.7	0.803	84.2	Unstable	Unstable	1.1 (≈ 0.405 µg/mL)	< 20	23.6	COc1cc(/C=C/C(=O)CC(=O)/C=C/c2ccc(O)c(OC)c2)ccc1O [CURCUMIN]	28.8	99.3
1.6		0.14	18.4						Cc1ccc(/C=C2\CCCC(C(=O)c3ccccc3)=C2O)s1		7.6

Continued, compound first:

SMILES	inhibition (INH) [1] [%]	IC50 [2] [µM]	Activity [4] [mmolequiv/L]	inhibition (INH) [5] [%]	Stability [7]	Stability [8]	solubility at 24 h [9] [µM]	remaining at 2 h, 1000 µM [10] [%]	IC50 [11] [µM]	IC50 [3] [µM]	inhibition at 50 µM [6] [%]
O=C(C1=C(O)/C(=C/c2cccc3ccccc23)CCC1)c1ccccc1	14.8		0.015	17.8							15
O=C(C1=C(O)/C(=C/c2cccs2)CCC1)c1ccccc1	3.3		0.177	21.8							8.2
Cc1cc(C(C)(C)C)c(O)c(C(C)(C)C)c1 [BUTYLATED HYDROXYTOLUENE]	6.5		0.798								
O=C1O[C@H]([C@@H](O)CO)C(O)=C1O [ASCORBIC ACID]	2.6										
Cc1c(C)c2c(c(C)c1O)CCC(C)(C(=O)O)O2 (configuration not stated) [TROLOX]	12.4		0.395								
